Drawing on patent US12577257B2, “Heterocyclic compounds” (Hoffmann-La Roche Inc., priority 2018, dated 2026), this text covers IC50 for 13 compounds.

For assay [1], the target named is T1, MAGL (recombinant wild-type) (Homo sapiens, UniProt Q99685).
T1 sequence (Q99685 1-303): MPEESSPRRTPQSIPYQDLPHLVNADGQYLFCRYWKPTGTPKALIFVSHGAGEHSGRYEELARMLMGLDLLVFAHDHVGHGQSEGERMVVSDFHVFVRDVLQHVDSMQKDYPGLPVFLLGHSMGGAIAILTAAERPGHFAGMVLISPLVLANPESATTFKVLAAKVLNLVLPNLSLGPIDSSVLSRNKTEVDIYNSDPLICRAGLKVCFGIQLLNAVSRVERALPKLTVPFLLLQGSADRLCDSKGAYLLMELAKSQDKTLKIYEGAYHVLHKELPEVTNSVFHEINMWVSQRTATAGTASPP
Kind of assay: 4-NPA assay: MAGL hydrolysis of 4-nitrophenylacetate, absorbance at 405 nm. Format: biochemical. The conditions noted are these: footnote [b]: measured in 4-NPA assay. The procedure: (§1) Compounds were profiled for MAGL inhibitory activity by measuring the enzymatic activity of MAGL by following the hydrolysis of 4-nitrophenylacetate resulting in 4-nitrophenol, which absorbs at 405-412 nm (G. G. Muccioli, G. Labar, D. M. Lambert, Chem. Bio. Chem. 2008, 9, 2704-2710). This assay is hereinafter abbreviated “4-NPA assay”.
(§2) The 4-NPA assay was carried out in 384 well assay plates (black with clear bottom, non-binding surface treated, Corning Ref. 3655) in a total volume of 40 μL. Compound dilutions were made in 100% DMSO (VWR Chemicals 23500.297) in a polypropylene plate in 3-fold dilution steps to give a final concentration range in the assay from 25 μM to 1.7 nM. 1 μL compound dilutions (100% DMSO) were added to 19 μL MAGL (recombinant wild-type) in assay buffer (50 mM TRIS (GIBCO, 15567-027), 1 mM EDTA (Fluka, 03690-100 ml)). The plate was shaked for 1 min at 2000 rpm (Variomag Teleshake) and then incubated for 15 min at RT. To start the reaction, 20 μL 4-Nitrophenylacetate (Sigma N-8130) in assay buffer with 6% EtOH was added. The final concentrations in the assay were 1 nM MAGL and 300 μM 4-Nitrophenylacetate. After shaking (1 min, 2000 rpm) and 5 min incubation at RT, the absorbance at 405 nm was measured for a first time (Molecular Devices, SpectraMax Paradigm). A second measurement was then done after incubation for 80 min at RT. From the two measurements, the slope was calculated by subtracting the first from the second measurement.

The target of another assay is T2, MAGL (Homo sapiens, UniProt Q99685).
T2 sequence (Q99685 1-303): T1 sequence (Q99685 1-303)
Description: MAGL inhibition, Table 1 values with no assay marker (2-AG or 4-NPA assay not stated). Format: biochemical. The procedure: as §1, §2
Alternatively, compounds were profiled for MAGL inhibitory activity by determining the enzymatic activity by following the hydrolysis of the natural substrate 2-arachidonoylglycerol resulting in arachidonic acid, which can be followed by mass spectrometry. This assay is hereinafter abbreviated “2-AG assay”.
The 2-AG assay was carried out in 384 well assay plates (PP, Greiner Cat #784201) in a total volume of 20 μL. Compound dilutions were made in 100% DMSO (VWR Chemicals 23500.297) in a polypropylene plate in 3-fold dilution steps to give a final concentration range in the assay from 12.5 μM to […]. 0.25 μL compound dilutions (100% DMSO) were added to 9 μL MAGL in assay buffer (50 mM TRIS (GIBCO, 15567-027), 1 mM EDTA (Fluka, 03690-100 ml), 0.01% (v/v) Tween. After shaking, the plate was incubated for 15 min at RT. To start the reaction, 10 μL 2-arachidonoylglycerol in assay buffer was added. The final concentrations in the assay was […] and 8 μM 2-arachidonoylglycerol. After shaking and 30 min incubation at RT, the reaction was quenched by the addition of 40 μL of acetonitrile containing 4 μM of d8-arachidonic acid. The amount of arachidonic acid was traced by an online SPE system (Agilent Rapidfire) coupled to a triple quadrupole mass spectrometer (Agilent 6460). A C18 SPE cartridge (G9205A) was used in an acetonitrile/water liquid setup. The mass spectrometer was operated in negative electrospray mode following the mass transitions 303.1→259.1 for arachidonic acid and 311.1→267.0 for d8-arachidonic acid. The activity of the compounds was calculated based on the ratio of intensities [arachidonic acid/d8-arachidonic acid].

SMILES strings stand for the structures.

On to `O=C1CO[C@H]2CCN(C(=O)N3CCC4(C3)CN(C(c3ccccc3)c3ccccc3)C4)C[C@H]2N1` (racemic) [Example 20, rac-(4aR,8aS)-6-(2-Benzhydryl-2,6-diazaspiro[3.4]octane-6-carbonyl)hexahydro-2H-pyrido[4,3-b][1,4]oxazin-3(4H)-one], for which the IC50 in assay [1] is 2690 nM.

Turning to `O=C1CO[C@H]2CCN(C(=O)N3CCC4(CC3)CN(S(=O)(=O)c3ccc(F)cc3)CCO4)C[C@H]2N1` (racemic) [Example 21, rac-(4aR,8aS)-6-(4-((4-Fluorophenyl)sulfonyl)-1-oxa-4,9-diazaspiro[5.5]undecane-9-carbonyl)hexahydro-2H-pyrido[4,3-b][1,4]oxazin-3(4H)-one], the IC50 in assay [1] came to 836 nM. Take `CC(C)(C)OC(=O)N1CC2(CCN(C(=O)N3CC[C@@H]4OCC(=O)N[C@@H]4C3)C2)C1` (racemic) [Int-1, rac-tert-Butyl 6-((4aR,8aS)-3-oxooctahydro-2H-pyrido[4,3-b][1,4]oxazine-6-carbonyl)-2,6-diazaspiro[3.4]octane-2-carboxylate]: in assay [1], the IC50 is 539 nM. As for `O=C1CO[C@H]2CCN(C(=O)N3CCC4(CC3)CN(S(=O)(=O)c3ccccc3)C4)C[C@H]2N1` [Example 39, (4aR,8aS)-6-(2-(Phenylsulfonyl)-2,7-diazaspiro[3.5]nonane-7-carbonyl)hexahydro-2H-pyrido[4,3-b][1,4]oxazin-3(4H)-one], the IC50 in assay [1] came to 599 nM. The compound `O=C1CO[C@H]2CCN(C(=O)N3CCC4(C3)CN(c3ccnc(F)c3)C4)C[C@H]2N1` [Example 64, (4aR,8aS)-6-(2-(2-fluoropyridin-4-yl)-2,6-diazaspiro[3.4]octane-6-carbonyl)hexahydro-2H-pyrido[4,3-b][1,4]oxazin-3(4H)-one] yielded an IC50 against MAGL of 4970 nM.

On MAGL, `O=C1CO[C@H]2CCN(C(=O)N3CC4(C3)CN(c3cc(C(F)(F)F)ccc3C(F)(F)F)C4)C[C@H]2N1` [Example 65, (4aR,8aS)-6-(6-(2,5-bis(trifluoromethyl)phenyl)-2,6-diazaspiro[3.3]heptane-2-carbonyl)hexahydro-2H-pyrido[4,3-b][1,4]oxazin-3(4H)-one] gave a concentration for half-maximal inhibition (IC50) of 1100 nM.

In the case of `O=C1CO[C@H]2CCN(C(=O)N3CC4(C3)CN(S(=O)(=O)c3ccc(F)cc3C(F)(F)F)C4)C[C@H]2N1` [Example 66, (4aR,8aS)-6-(6-((4-fluoro-2-(trifluoromethyl)phenyl)sulfonyl)-2,6-diazaspiro[3.3]heptane-2-carbonyl)hexahydro-2H-pyrido[4,3-b][1,4]oxazin-3(4H)-one], on MAGL, half-maximal inhibition (IC50) was put at 195 nM. On the same count and under the same terms, as for `O=C1CO[C@H]2CCN(C(=O)N3CC4(CC(S(=O)(=O)c5ccc(F)cc5Cl)C4)C3)C[C@H]2N1` [Example 67, (4aR,8aS)-6-(6-((2-chloro-4-fluorophenyl)sulfonyl)-2-azaspiro[3.3]heptane-2-carbonyl)hexahydro-2H-pyrido[4,3-b][1,4]oxazin-3(4H)-one], the figure is 67.1 nM; as for `O=C1CO[C@H]2CCN(C(=O)N3CC4(C3)CN(S(=O)(=O)c3ccc(C(F)(F)F)c(Cl)c3)C4)C[C@H]2N1` [Example 68, (4aR,8aS)-6-(6-((3-chloro-4-(trifluoromethyl)phenyl)sulfonyl)-2,6-diazaspiro[3.3]heptane-2-carbonyl)hexahydro-2H-pyrido[4,3-b][1,4]oxazin-3(4H)-one], 357 nM; as for `O=C1CO[C@H]2CCN(C(=O)N3CC4(C3)CN(S(=O)(=O)c3ccc(C(F)(F)F)cc3C(F)(F)F)C4)C[C@H]2N1` [Example 69, (4aR,8aS)-6-(6-((2,4-bis(trifluoromethyl)phenyl)sulfonyl)-2,6-diazaspiro[3.3]heptane-2-carbonyl)hexahydro-2H-pyrido[4,3-b][1,4]oxazin-3(4H)-one], 214 nM.

With `COc1cccc(F)c1CC1CC2(C1)CN(C(=O)N1CC[C@@H]3OCC(=O)N[C@@H]3C1)C2` [Example 71, (4aR,8aS)-6-(6-(2-fluoro-6-methoxybenzyl)-2-azaspiro[3.3]heptane-2-carbonyl)hexahydro-2H-pyrido[4,3-b][1,4]oxazin-3(4H)-one], the concentration for half-maximal inhibition (IC50) against MAGL stood at 0.1 nM. On the same count and under the same terms, as for `O=C1CO[C@H]2CCN(C(=O)N3CC4(CC(Cc5c(O)cccc5F)C4)C3)C[C@H]2N1` [Example 73, (4aR,8aS)-6-(6-(2-fluoro-6-hydroxybenzyl)-2-azaspiro[3.3]heptane-2-carbonyl)hexahydro-2H-pyrido[4,3-b][1,4]oxazin-3(4H)-one], the figure is 0.1 nM. `O=C1CO[C@H]2CCN(C(=O)N3CC4(CC(Cc5ccccc5O)C4)C3)C[C@H]2N1` [Example 74, (4aR,8aS)-6-(6-(2-hydroxybenzyl)-2-azaspiro[3.3]heptane-2-carbonyl)hexahydro-2H-pyrido[4,3-b][1,4]oxazin-3(4H)-one] had an IC50 on MAGL of 0.5 nM.
